Measurements: US20130072383A1, “METHOD FOR ANTI-SPROUTING AND POSSIBLY FUNGICIDAL TREATMENT OF BULBS AND/OR TUBERS USING CLOVE OIL AND MINT OIL” (priority 2010, published 2013)

Test system: Bintje, Nicola and Charlotte potatoes
Test: Sprout-inhibiting treatment of stored potatoes over 6 months, sprout weights (Example 1)
Assay type: in vivo
Conditions: used alone
Description: The sprout-inhibiting treatments were carried out over a 6-month period.
The mint oil used contained about 70% L-carvone and the clove oil used contained about 90% eugenol.
The tested potatoes were Bintje, Nicola and Charlotte varieties.
An anti-sprouting composition A consisting of a mixture of clove oil (supplied by Charabot (Grasse)/ mint oil (supplied by Charabot (Grasse) at 2:1 v/v was prepared. The densities of mint and clove are respectively 0.94 and 1.04. This composition was applied to the potatoes using Electrofog Xeda 3000 equipment at an output temperature of 210° C., • at an initial dose of 90 grams of composition per tonne of potatoes, • at subsequent doses of 30 grams of composition per tonne of potatoes every three weeks.
For comparison, some potatoes were treated: • B: either with mint oil alone
at an initial dose of 90 grams of mint oil per tonne of potatoes,
at subsequent doses of 30 grams of mint oil per tonne of potatoes every three weeks; • C: or with clove oil alone
at an initial dose of 90 grams of clove oil per tonne of potatoes,
at subsequent doses of 30 grams of clove oil per tonne of potatoes every three weeks; • D: or with CIPC (Xedamate Aerosol 88 containing 20% CIPC) by thermal fogging:
at an initial dose of 60 grams of Xedamate Aerosol 88 per tonne of potatoes, […]

## L-carvone
  Anti-sprouting activity relative to reference product CIPC: comparable with the reference product (CIPC)
